6 molecules from patent USRE47245E1, “Pro-angiogenic peptides and uses thereof” (Susavion Biosciences, Inc., priority 2006, dated 2019) can be followed below.

Where no end group is shown, it is not given here.

The subject of experiment [1] is 786-0 human renal cell adenocarcinoma cell line. The experiment is described as follows: Pro-angiogenic activity: growth of xenograft tumor in nude mouse. It is filed as in vivo, nude mouse (nu/nu). As to conditions: in combination with the WNSTL construct. As to the method: Tumors require vascularization to obtain nutrients to support growth. Therefore, stimulation of growth of a tumor in response to administration of a construct of this invention is an indication of angiogenesis. For this example, a xenograph model system with the nude mouse (nu/nu) was used to determine the effect of peptide on growth of 786-0 human renal cell adenocarcinoma cell line injected into the flank of a mouse so as to induce a tumor. After the tumor was established, peptide was injected subcutaneously on alternate days. The weight of the tumor was estimated by calculation of the volume.
FIG. 4 illustrates data resulting from assays for pro-angiogenic activity for one embodiment of the invention. […] The peptide was also assayed in combination with Sorafenib, an anti-angiogenic drug.

Experiment [2] has as its system macrophages in PBMC cultures. The experiment is described as follows: Stimulation of phagocytosis: macrophages engulfing microspheres opsonized with anti-HIV antibodies. Format: cell-based, human. Particulars: PBMC cultures pretreated; control cultures 0 to 3 beads. As to the method: The activity of the peptides to stimulate phagocytosis was assessed by the ability of macrophages to engulf microspheres opsonized with anti-HIV antibodies. A biotin-tagged peptide epitope of a surface protein of HIV-1 was bound to streptavidin on the surface of the beads. An antibody preparation that was raised against this epitope was then bound to the HIV peptide. The beads were then washed and presented to PBMC cultures pretreated with peptides. Macrophages in cultures not treated with peptides had little, if any, phagocytic activity. In multiple control cultures, the number of beads within a macrophage-like cell ranged from 0 to 3. In the cultures treated with peptide constructs containing four copies of the peptide sequences WNSTL (SEQ ID NO:1), NQHTPR (SEQ ID NO:2), or VQATQS (SEQ ID NO:8), an average of 10 beads were counted in each phagocytic cell, with no substantial difference between peptide constructs.

For experiment [3], the system named is peripheral blood mononuclear cells (PBMCs). The experiment is described as follows: Regulation of cytokine release: cytokine antibody array on medium of PBMC cultures. It is filed as cell-based, human. Here is the method:
To determine whether the peptides regulate induction or inhibition of release of cytokines, cultured peripheral blood mononuclear cells (PBMCs) were treated with one peptide embodiment of the invention and, after 4 hour incubation, the medium was collected and assayed for changes in the amounts of 40 different cytokines. The peptide construct containing four copies of WNSTL (SEQ ID NO:1), illustrated in FIG. 2A, was added at a concentration of 100 nM in each of the assays. The PBMC cultures were established with cells from Cellular Technology, Ltd. (Shaker Heights, Ohio). Approximately 3 million cells of frozen human PBMCs were thawed at 37° C. and transferred to a 50 mL conical tube where 8 mL of wash medium were added slowly. Then an additional 8 mL were added and swirled to mix. The cells were then centrifuged at 330 g for 10 min, the supernatant was removed and the pellet was resuspended in 10 mL wash medium and centrifuged as above. The washed cells were then resuspended in RPMI 1640 medium containing 10% FBS to about 6 million cells per mL and 100 μL of the suspension were added into each well of a 96-well microtiter plate and incubated overnight at 37° C. in humidified 5% CO2. After 24 hr, the medium was replaced with 200 μL fresh RPMI 1640 medium containing 10% FBS and incubated at 37° C. in humidified 5% CO2 for 2 days. For the data shown in TABLE 1, an aliquot of the peptide construct was added to samples in duplicate at a final concentration of 5 nM or 100 nM and incubated at 37° C. in humidified 5% CO2 for 4 hr. For other experiments (data not included), the incubation was continued for 24 hr. The medium was then removed and stored at […]. The samples were analyzed for production of cytokines. One set of control cells was not treated with an experimental agent. A second set of control cells was treated with LPS, the agent commonly used to induce production of a variety of inflammatory cytokines.
Assays of cytokine levels in samples of culture media were performed using methods developed by RayBiotech, Inc. (Norcross, Ga.). In this technology, membrane arrays of antibodies against cytokines were incubated with samples of media. After washing, the array was incubated with a cocktail of all antibodies tagged with biotin. The membrane was then washed free of unbound antibodies and incubated with streptavidin labeled with a fluorescent dye. After a final wash, the membrane arrays were read in a fluorescence detector and the intensities of the spots quantitated to obtain relative values.
One set of control samples was not treated with peptide and a second set of control samples was treated with lipopolysaccharide (LPS) in the absence of the peptide construct. The structure of the construct is illustrated in FIG. 2A. […] The decrease in IL-8 concentration in the peptide-treated sample, as compared with the amount of IL-8 in the sample treated with the proto-typical inflammatory agent LPS, is particularly notable. […] The increase in the proangiogenic PDGF-BB and the decrease in the inflammatory IL-8, without concomitant stimulation of inflammation, are of particular importance with respect to wound healing. […]

[4] abbreviates: PBMCs in serum, 4 hr, construct 100 nM.

As to `CNC(=O)c1cc(Oc2ccc(NC(=O)Nc3ccc(Cl)c(C(F)(F)F)c3)cc2)ccn1` [Sorafenib, reference compound], in experiment [1], the “effect on the peptide-enhanced tumor growth” value is “strongly (but not completely) inhibited”.
For “IFN-γ: cytokine Interferon-gamma used as comparison treatment [reference compound]”, in experiment [2], the “average beads counted in each phagocytic cell” value (“average beads counted” for short) was “roughly 15 beads”.
Take “NQHTPR: branched construct: four copies of core sequence NQHTPR, each via GGGS linker on tri-lysine framework (also: tetramer: four copies each via GGGS linker on tri-lysine framework (branched))”: in experiment [3] (setting [4]), the “Relative concentration of Eotaxin” value is on record as 57, the “Relative concentration of Eotaxin-2” value amounted to 310, the “Relative concentration of IL-12p40” value was 45 and the “Relative concentration of IL-12p70” value is on record as 65. In experiment [3] (setting [4]), the “Relative concentration of IL-15” value is 146, the “Relative concentration of IL-16” value worked out at 8, the “Relative concentration of IL-17” value is on record as 14 and the “Relative concentration of IL-21” value is 200. In experiment [3] (setting [4]), the “Relative concentration of M-CSF” value is recorded as 116, the “Relative concentration of MCP-2” value is on record as 90, the “Relative concentration of MIG” value is 100 and the “Relative concentration of MIP-1b” value is on record as 777. In experiment [3] (setting [4]), the “Relative concentration of TIMP-2” value is listed as 110, the “Relative concentration of TNF-β” value worked out at 84 and the “Relative concentration of sTNF RII” value came out at 26. Moreover, in experiment [2], the “average beads counted” value stood at 10 beads.
For the molecule “VQATQS: construct containing four copies of core sequence VQATQS (also: four copies, branched construct)”, in experiment [3] (setting [4]), the “Relative concentration of Eotaxin-2” value is listed as 401, the “Relative concentration of I-309” value is 101, the “Relative concentration of IL-4” value stood at 64 and the “Relative concentration of IL-6” value came out at 167. For the same molecule, in experiment [3] (setting [4]), the “Relative concentration of IL-10” value was found to be 67, the “Relative concentration of IL-12p40” value is 74, the “Relative concentration of IL-12p70” value was 112 and the “Relative concentration of IL-15” value was found to be 134. Further, in experiment [3] (setting [4]), the “Relative concentration of IL-16” value is given as 10, the “Relative concentration of IL-17” value was 21, the “Relative concentration of IL-21” value is on record as 90 and the “Relative concentration of IP-10” value is 334. Moreover, in experiment [3] (setting [4]), the “Relative concentration of M-CSF” value was 90, the “Relative concentration of MCP-1” value is 1,966, the “Relative concentration of PDGF-BB” value is 83 and the “Relative concentration of TGF-β1” value is 83. Moreover, in experiment [3] (setting [4]), the “Relative concentration of TIMP-2” value is reported as 175, the “Relative concentration of TNF-α” value came out at 98, the “Relative concentration of TNF-β” value is listed as 91 and the “Relative concentration of sTNF RI” value was 75. Moreover, in experiment [3] (setting [4]), the “Relative concentration of sTNF RII” value turned out to be 20. The “average beads counted” value in experiment [2] came out at 10 beads.
For the molecule “VSNQH: construct containing four copies of core sequence VSNQH (also: four copies of core sequence, branched construct)”, in experiment [3] (setting [4]), the “Relative concentration of Eotaxin” value came out at 47, the “Relative concentration of Eotaxin-2” value worked out at 470, the “Relative concentration of GM-CSF” value is 96 and the “Relative concentration of ICAM-1” value stood at 70. Besides, in experiment [3] (setting [4]), the “Relative concentration of IFN-γ” value was determined as 170, the “Relative concentration of IL-1α” value is 322, the “Relative concentration of IL-12p40” value came to 52 and the “Relative concentration of IL-12p70” value is 117. Besides, in experiment [3] (setting [4]), the “Relative concentration of IL-15” value is on record as 137, the “Relative concentration of IL-17” value turned out to be 21, the “Relative concentration of IL-21” value was 130 and the “Relative concentration of IP-10” value worked out at 377. In addition, in experiment [3] (setting [4]), the “Relative concentration of MCP-2” value is given as 97, the “Relative concentration of MIG” value stood at 94, the “Relative concentration of PDGF-BB” value came to 82 and the “Relative concentration of TIMP-2” value stood at 285. Moreover, in experiment [3] (setting [4]), the “Relative concentration of TNF-α” value is reported as 138 and the “Relative concentration of TNF-β” value was determined as 93.
Consider “lipopolysaccharide [LPS, reference compound]”, for which, in experiment [3] (PBMCs in serum, 4 hr), the “Relative concentration of IL-2” value was determined as 90, the “Relative concentration of IL-3” value was determined as 132, the “Relative concentration of IL-13” value amounted to 125 and the “Relative concentration of MIP-1a” value turned out to be 237. Moreover, in experiment [3] (PBMCs in serum, 4 hr), the “Relative concentration of MIP-1d” value was 38 and the “change in the amount of the inflammatory cytokine IL-6 compared to untreated control samples” value is reported as “significantly elevated”. Besides, in experiment [3] (setting [4]), the “Relative concentration of Eotaxin” value is listed as 31, the “Relative concentration of Eotaxin-2” value is reported as 469, the “Relative concentration of GCSF” value was 120 and the “Relative concentration of GM-CSF” value stood at 106. Besides, in experiment [3] (setting [4]), the “Relative concentration of I-309” value stood at 39, the “Relative concentration of ICAM-1” value is 53, the “Relative concentration of IFN-γ” value is given as 158 and the “Relative concentration of IL-1α” value is reported as 246. In experiment [3] (setting [4]), the “Relative concentration of IL-1β” value was 47, the “Relative concentration of IL-4” value worked out at 49, the “Relative concentration of IL-6” value is 4,375 and the “Relative concentration of IL-6sR” value was 52. In experiment [3] (setting [4]), the “Relative concentration of IL-7” value is given as 178, the “Relative concentration of IL-8” value is 840, the “Relative concentration of IL-10” value is on record as 218 and the “Relative concentration of IL-11” value is on record as 26. Moreover, in experiment [3] (setting [4]), the “Relative concentration of IL-12p40” value amounted to 46, the “Relative concentration of IL-12p70” value is recorded as 89, the “Relative concentration of IL-15” value was 104 and the “Relative concentration of IL-16” value was found to be 2. Further, in experiment [3] (setting [4]), the “Relative concentration of IL-17” value turned out to be 10, the “Relative concentration of IP-10” value stood at 268, the “Relative concentration of M-CSF” value turned out to be 59 and the “Relative concentration of MCP-2” value was 177. In experiment [3] (setting [4]), the “Relative concentration of MIG” value is reported as 66, the “Relative concentration of MIP-1b” value is listed as 1,828, the “Relative concentration of PDGF-BB” value is 56 and the “Relative concentration of RANTES” value was 114. In experiment [3] (setting [4]), the “Relative concentration of TGF-β1” value is on record as 62, the “Relative concentration of TIMP-2” value was 92, the “Relative concentration of TNF-α” value was determined as 93 and the “Relative concentration of TNF-β” value was 95. In addition, in experiment [3] (setting [4]), the “Relative concentration of sTNF RI” value amounted to 58 and the “Relative concentration of sTNF RII” value amounted to 26. In experiment [3] (in one experiment, untreated control 98), the “relative IL-6 concentration” value is listed as 5,879.
